Data as given in patent US12473304B2, “Heterocyclic PAD4 inhibitors” (BRISTOL-MYERS SQUIBB COMPANY, priority 2020, dated 2025).

Target: human PAD4 (hPAD4) (Homo sapiens (Human), UniProt Q9UM07)
Test: RFMS Human PAD4 Functional Assay 1
Format: biochemical
Details: RFMS assay 1; 5 nM hPAD4, 250 μM BAEE substrate, 50 μM calcium, 37° C.
In short: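 Recombinant hPAD4 (5 nM) was preincubated with compound (top 50 μM, 0.5% DMSO) for 30 min at 37 °C, then reacted with 250 μM BAEE for 90 min at 37 °C in pH 7.5 HEPES buffer with 50 μM calcium and 5 μM TPEN. Product was derivatized with phenyl glyoxal and quantified by RapidFire MS.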

Sequence of human PAD4 (hPAD4) (Q9UM07 whole entry): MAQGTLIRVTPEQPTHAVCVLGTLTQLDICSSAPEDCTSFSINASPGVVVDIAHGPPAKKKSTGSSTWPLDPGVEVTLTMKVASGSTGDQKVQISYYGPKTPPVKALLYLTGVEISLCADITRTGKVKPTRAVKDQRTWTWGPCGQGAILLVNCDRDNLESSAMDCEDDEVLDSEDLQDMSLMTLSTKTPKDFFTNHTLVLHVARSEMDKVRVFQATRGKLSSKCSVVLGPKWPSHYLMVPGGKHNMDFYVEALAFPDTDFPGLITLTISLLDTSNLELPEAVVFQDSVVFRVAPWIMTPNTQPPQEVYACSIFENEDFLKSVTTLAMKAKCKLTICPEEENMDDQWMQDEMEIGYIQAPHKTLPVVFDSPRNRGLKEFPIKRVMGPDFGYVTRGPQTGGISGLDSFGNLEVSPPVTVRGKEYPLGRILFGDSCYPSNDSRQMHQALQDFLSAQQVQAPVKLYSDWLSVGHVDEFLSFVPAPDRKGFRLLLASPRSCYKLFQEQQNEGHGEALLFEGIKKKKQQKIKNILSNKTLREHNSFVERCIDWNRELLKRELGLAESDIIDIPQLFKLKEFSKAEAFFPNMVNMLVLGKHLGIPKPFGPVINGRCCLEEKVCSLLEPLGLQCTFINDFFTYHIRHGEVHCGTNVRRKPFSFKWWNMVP

Compound | IC50 [nM]
Cc1c(-c2cc3cccc(OCCn4ccnc4)c3n2CC2CC2)nn2cc(C(=O)N3CCC[C@@H](N)C3)ccc12 [Example 575, (R)-(2-(7-(2-(1H-lmidazol-1-yl)ethoxy)-1-(cyclopropylmethyl)-1H-indol-2-yl)-3-methylpyrazolo[1,5-a]pyridin-6-yl)(3-aminopiperidin-1-yl)methanone] | 60
Cc1c(-c2cc3cccc(OCCn4cncn4)c3n2CC2CC2)nn2cc(C(=O)N3CCC[C@@H](N)C3)ccc12 [Example 580, (R)-(2-(7-(2-(1H-1,2,4-Triazol-1-yl)ethoxy)-1-(cyclopropylmethyl)-1H-indol-2-yl)-3-methylpyrazolo[1,5-a]pyridin-6-yl)(3-aminopiperidin-1-yl)methanone] | 60
Cc1c(-c2cc3cccc(OCCn4cc(N)cn4)c3n2CC2CC2)nn2cc(C(=O)N3CCC[C@@H](N)C3)ccc12 [Example 582, (R)-(2-(7-(2-(4-Amino-1H-pyrazol-1-yl)ethoxy)-1-(cyclopropylmethyl)-1H-indol-2-yl)-3-methylpyrazolo[1,5-a]pyridin-6-yl)(3-aminopiperidin-1-yl)methanone] | 300
COc1cc(C(=O)N2C[C@H](N)C[C@@H](F)C2)cn2nc(-c3cc4ccnc(OCCn5cncn5)c4n3CC3CC3)c(C)c12 [Example 592, (2-(7-(2-(1H-1,2,4-Triazol-1-yl)ethoxy)-1-(cyclopropylmethyl)-1H-pyrrolo[2,3-c]pyridin-2-yl)-4-methoxy-3-methylpyrazolo[1,5-a]pyridin-6-yl)((3R,5R)-3-amino-5-fluoropiperidin-1-yl)methanone] | 30
COc1cc(C(=O)N2CCC[C@@H](N)C2)cn2nc(-c3cc4ccnc(OCCn5cncn5)c4n3CC3CC3)c(C)c12 [Example 593, (R)-(2-(7-(2-(1H-1,2,4-Triazol-1-yl)ethoxy)-1-(cyclopropylmethyl)-1H-pyrrolo[2,3-c]pyridin-2-yl)-4-methoxy-3-methylpyrazolo[1,5-a]pyridin-6-yl)(3-aminopiperidin-1-yl)methanone] | 110
COc1cc(C(=O)N2C[C@H](N)C[C@@H](F)C2)cn2nc(-c3cc4ccnc(OCCn5ccnc5C)c4n3CC3CC3)c(C)c12 [Example 594, ((3R,5R)-3-Amino-5-fluoropiperidin-1-yl)(2-(1-(cyclopropylmethyl)-7-(2-(2-methyl-1H-imidazol-1-yl)ethoxy)-1H-pyrrolo[2,3-c]pyridin-2-yl)-4-methoxy-3-methylpyrazolo[1,5-a]pyridin-6-yl)methanone] | 390
COc1cc(C(=O)N2CCC[C@@H](N)C2)cn2nc(-c3cc4ccnc(OCCn5ccnc5C)c4n3CC3CC3)c(C)c12 [Example 595, (R)-(3-Aminopiperidin-1-yl)(2-(1-(cyclopropylmethyl)-7-(2-(2-methyl-1H-imidazol-1-yl)ethoxy)-1H-pyrrolo[2,3-c]pyridin-2-yl)-4-methoxy-3-methylpyrazolo[1,5-a]pyridin-6-yl)methanone] | 1280
COc1cc(C(=O)N2CCC[C@@H](N)C2)cn2nc(-c3cc4ccnc(OCC5COC5)c4n3CC3CC3)c(C)c12 [Example 596, (R)-(3-Aminopiperidin-1-yl)(2-(1-(cyclopropylmethyl)-7-(oxetan-3-ylmethoxy)-1H-pyrrolo[2,3-c]pyridin-2-yl)-4-methoxy-3-methylpyrazolo[1,5-a]pyridin-6-yl)methanone] | 7390
COc1cc(C(=O)N2C[C@H](N)C[C@@H](F)C2)cn2nc(-c3cc4ccnc(OCCn5ccnc5)c4n3CC3CC3)c(C)c12 [Example 597, (2-(7-(2-(1H-Imidazol-1-yl)ethoxy)-1-(cyclopropylmethyl)-1H-pyrrolo[2,3-c]pyridin-2-yl)-4-methoxy-3-methylpyrazolo[1,5-a]pyridin-6-yl)((3R,5R)-3-amino-5-fluoropiperidin-1-yl)methanone] | 10
COc1cc(C(=O)N2CCC[C@@H](N)C2)cn2nc(-c3cc4ccnc(OCCn5ccnc5)c4n3CC3CC3)c(C)c12 [Example 598, (R)-(2-(7-(2-(1H-Imidazol-1-yl)ethoxy)-1-(cyclopropylmethyl)-1H-pyrrolo[2,3-c]pyridin-2-yl)-4-methoxy-3-methylpyrazolo[1,5-a]pyridin-6-yl)(3-aminopiperidin-1-yl)methanone] | 20
COc1cc(C(=O)N2CCC[C@@H](N)C2)cn2nc(-c3cc4ccnc(OCCn5cnnc5)c4n3CC3CC3)c(C)c12 [Example 599, (R)-(2-(7-(2-(4H-1,2,4-Triazol-4-yl)ethoxy)-1-(cyclopropylmethyl)-1H-pyrrolo[2,3-c]pyridin-2-yl)-4-methoxy-3-methylpyrazolo[1,5-a]pyridin-6-yl)(3-aminopiperidin-1-yl)methanone] | 20
COc1cc(C(=O)N2C[C@H](N)C[C@@H](F)C2)cn2nc(-c3cc4ccnc(OCCn5cnnc5)c4n3CC3CC3)c(C)c12 [Example 600, (2-(7-(2-(4H-1,2,4-Triazol-4-yl)ethoxy)-1-(cyclopropylmethyl)-1H-pyrrolo[2,3-c]pyridin-2-yl)-4-methoxy-3-methylpyrazolo[1,5-a]pyridin-6-yl)((3R,5R)-3-amino-5-fluoropiperidin-1-yl)methanone] | 30
COc1cc(C(=O)N2CC3CCC2[C@@H]3N)cn2nc(-c3cc4ccnc(OC[C@H]5CCC(=O)N5)c4n3CC3CC3)c(C)c12 (stereo partly drawn) [Example 604, (5R)-5-(((2-(6-((7R)-7-Amino-2-azabicyclo[2.2.1]heptane-2-carbonyl)-4-methoxy-3-methylpyrazolo[1,5-a]pyridin-2-yl)-1-(cyclopropylmethyl)-1H-pyrrolo[2,3-c]pyridin-7-yl)oxy)methyl)pyrrolidin-2-one] | 30

Results, then the molecule that gave them:

IC50 [nM] | Compound
60 | Cc1c(-c2cc3cccc(OC[C@@H]4CCC(=O)N4)c3n2CC2CC2)nn2cc(C(=O)N3C[C@H](N)C[C@@H](F)C3)cc(F)c12 [Example 568, (S)-5-(((2-(6-((3R,5R)-3-Amino-5-fluoropiperidine-1-carbonyl)-4-fluoro-3-methylpyrazolo[1,5-a]pyridin-2-yl)-1-(cyclopropylmethyl)-1H-indol-7-yl)oxy)methyl)pyrrolidin-2-one]
20 | Cc1c(-c2cc3cccc(OC[C@@H]4CCC(=O)N4)c3n2CC2CC2)nn2cc(C(=O)N3CCC[C@@H](N)C3)cc(F)c12 [Example 569, (S)-5-(((2-(6-((R)-3-Aminopiperidine-1-carbonyl)-4-fluoro-3-methylpyrazolo[1,5-a]pyridin-2-yl)-1-(cyclopropylmethyl)-1H-indol-7-yl)oxy)methyl)pyrrolidin-2-one]
180 | Cc1c(-c2cc3cccc(OC[C@H]4CCC(=O)N4)c3n2CC2CC2)nn2cc(C(=O)N3CCC[C@@H](N)C3)cc(F)c12 [Example 570, (R)-5-(((2-(6-((R)-3-Aminopiperidine-1-carbonyl)-4-fluoro-3-methylpyrazolo[1,5-a]pyridin-2-yl)-1-(cyclopropylmethyl)-1H-indol-7-yl)oxy)methyl)pyrrolidin-2-one]
20 | Cc1c(-c2cc3cccc(OCCn4ccnc4)c3n2CC2CC2)nn2cc(C(=O)N3C[C@H](N)C[C@@H](F)C3)ccc12 [Example 574, (2-(7-(2-(1H-Imidazol-1-yl)ethoxy)-1-(cyclopropylmethyl)-1H-indol-2-yl)-3-methylpyrazolo[1,5-a]pyridin-6-yl)((3R,5R)-3-amino-5-fluoropiperidin-1-yl)methanone]
30 | Cc1c(-c2cc3cccc(OCCn4cncn4)c3n2CC2CC2)nn2cc(C(=O)N3C[C@H](N)C[C@@H](F)C3)ccc12 [Example 581, (2-(7-(2-(1H-1,2,4-Triazol-1-yl)ethoxy)-1-(cyclopropylmethyl)-1H-indol-2-yl)-3-methylpyrazolo[1,5-a]pyridin-6-yl)((3R, 5R)-3-amino-5-fluoropiperidin-1-yl)methanone]
1610 | Cc1c(-c2cc3cccc(OCCn4cc(N)cn4)c3n2CC2CC2)nn2cc(C(=O)N3C[C@H](N)C[C@@H](F)C3)ccc12 [Example 583, (2-(7-(2-(4-Amino-1H-pyrazol-1-yl)ethoxy)-1-(cyclopropylmethyl)-1H-indol-2-yl)-3-methylpyrazolo[1,5-a]pyridin-6-yl)((3R,5R)-3-amino-5-fluoropiperidin-1-yl)methanone]
50 | Cc1c(-c2cc3cccc(OC[C@@H]4CCC(=O)N4)c3n2CC2CC2)nn2cc(C(=O)N3CCC[C@@H](N)C3)ccc12 [Example 584, (S)-5-(((2-(6-((R)-3-Aminopiperidine-1-carbonyl)-3-methylpyrazolo[1,5-a]pyridin-2-yl)-1-(cyclopropylmethyl)-1H-indol-7-yl)oxy)methyl)pyrrolidin-2-one]
70 | Cc1c(-c2cc3cccc(OC[C@@H]4CCC(=O)N4)c3n2CC2CC2)nn2cc(C(=O)N3C[C@H](N)C[C@@H](F)C3)ccc12 [Example 585, (S)-5-(((2-(6-((3R,5R)-3-Amino-5-fluoropiperidine-1-carbonyl)-3-methylpyrazolo[1,5-a]pyridin-2-yl)-1-(cyclopropylmethyl)-1H-indol-7-yl)oxy)methyl)pyrrolidin-2-one]
150 | Cc1c(-c2cc3cccc(OC[C@H]4CCC(=O)N4)c3n2CC2CC2)nn2cc(C(=O)N3CCC[C@@H](N)C3)ccc12 [Example 586, (R)-5-(((2-(6-((R)-3-Aminopiperidine-1-carbonyl)-3-methylpyrazolo[1,5-a]pyridin-2-yl)-1-(cyclopropylmethyl)-1H-indol-7-yl)oxy)methyl)pyrrolidin-2-one]
1120 | Cc1c(-c2cc3cccc(OC[C@H]4CCC(=O)N4)c3n2CC2CC2)nn2cc(C(=O)N3C[C@H](N)C[C@@H](F)C3)ccc12 [Example 587, (R)-5-(((2-(6-((3R,5R)-3-Amino-5-fluoropiperidine-1-carbonyl)-3-methylpyrazolo[1,5-a]pyridin-2-yl)-1-(cyclopropylmethyl)-1H-indol-7-yl)oxy)methyl)pyrrolidin-2-one]
